Assay: free radical inhibition assay: inhibition of polymerization of acrylic acid to polyacrylic acid
Settings: for % Polymerization (after 3 hours at 85° C.): 30% acrylic acid in water, 200 ml, 0.6 ml of 1% inhibitor solution, initiated with azobisisobutyronitrile, remaining acrylic acid by iodine value
Text: A presently preferred method for determining the free radical inhibitory capacity of a compound is based on the ability of such a compound to inhibit free radical polymerization of acrylic acid to polyacrylic acid. […] As will be appreciated, the amount of polyacrylic acid formed is inversely related to the amount of acrylic acid (i.e., monomer) remaining in the reaction mixture at the end of the assay. The amount of acrylic acid may be routinely determined by measuring the iodine value of the reaction mixture or by other methods known in the art for determinating unsaturation. A well-known free radical inhibitor compound such as hydroquinone mono methyl ether (HQMME) may be used as a standard inhibitor compound in the assay.
Into each of three 250 ml beakers, labeled “1,” “2,” and “3” respectively, is added 200 ml of a 30% solution of acrylic acid (in water). One-tenth gram of 1,3-di(3-methoxybenzyl)thiourea was dissolved in 9.9 grams of isopropyl alcohol to give a 1% (w/w) solution of the free radical inhibitor compound. […] One-tenth gram of azobisisobutyronitrile (a free radical initiator) was dissolved in 9.9 grams of isopropyl alcohol to provide a 1% solution of the free radical initiator. To beaker 1, containing 200 ml of the acrylic acid solution was added 0.6 ml of the 1% solution of 1,3-di(3-methoxybenzyl)thiourea. To beaker 2, containing 200 ml of the acrylic acid solution was added 0.6 ml of the 1% solution of hydroquinone mono methyl ether. To beaker 3 was added 0.6 ml of isopropyl alcohol (no inhibitor). […] After 3 hours, the beakers were removed from the hot plate to stop the reaction from progressing further, and the amount of acrylic acid which remained in the reaction mixture was determined by measuring the iodine value of an aliquot of the reaction mixture using the A.O.C.S. Method Tg 1a-64T in Official Methods And Recommended Practices Of The AOCS, by American Oil Chemists' Society, Champaign, Ill.

| Compound | % Polymerization (after 3 hours at 85° C.) [%] | inhibition of the free radical polymerization reaction (in words) (assay of Example 10, 85° C., 3 hours) |
| --- | --- | --- |
| COc1ccc(O)cc1 [hydroquinone mono methyl ether, reference compound] | 78.6 | – |
| COc1cccc(CNC(=S)NCc2cccc(OC)c2)c1 [1,3-di(3-methoxybenzyl)thiourea, 1,3-di-(3-methoxybenzyl) thiourea] | 48.6 | strongly inhibited |

From patent US6545052B2, “Methods and compositions for inhibiting free radical polymerization in skin and hair” (Fan Tech, Ltd., priority 2000, dated 2003)
